Test results published in ChEMBL document CHEMBL1201862, “PubChem BioAssay data set” (2004).
The source made the active and inactive calls.

Legend:
[1] = inhibitors of firefly luciferase expression or activity, dose response, H4 neuroglioma cells, luminescence (AID 1990); assay type: functional, cell-based
[2] = Luminescence Cell-Based Dose Response HTS to Identify Inhibitors of 5'UTR Stem-Loop Driven Prion Protein mRNA Translation in H4 Neuroglioblastoma Cells. [Related pubchem assays: 1827 (Project Summary), 1813 (Primary HTS)]; assay type: functional
[3] = inhibitors of SNCA 5'UTR-driven reporter translation, confirmation, H4 neuroglioma cells, luminescence (AID 1988); assay type: functional, cell-based
[4] = cytotoxicity in HEK-293T cells, dose response, cytotoxicity control for BCR NF-kB inhibitor project, luminescence, B-cell screen hits (AID 489021); assay type: functional, cell-based;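 note: HEK-293T cells carrying an NF-kB luciferase reporter; cells exposed to compound for about 14 hours before viability readout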
[5] = target: T1, Bcl-2-like protein 10 (Homo sapiens, UniProt Q9HD36); assay: displacers of TR3 peptide from Bcl-B, primary screen, selectivity assay for Bfl-1 inhibitor project, biochemical, fluorescence polarization, FITC-TR3 peptide (AID 748);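 note: fluorescence polarization from a fluorescein-labelled TR3 peptide binding purified Bcl-B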
T1 sequence (Q9HD36 whole entry): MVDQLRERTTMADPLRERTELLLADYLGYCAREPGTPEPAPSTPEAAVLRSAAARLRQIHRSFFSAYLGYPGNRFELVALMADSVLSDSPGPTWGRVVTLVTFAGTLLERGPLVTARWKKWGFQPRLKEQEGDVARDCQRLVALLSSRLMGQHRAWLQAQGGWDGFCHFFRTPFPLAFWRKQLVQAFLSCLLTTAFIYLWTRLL

[6] = target: T2, Mannose-6-phosphate isomerase (Homo sapiens, UniProt P34949); assay: human PMI inhibitors, high substrate, primary screen, biochemical, fluorescence intensity, high mannose 6-phosphate (AID 1220)
T2 sequence (P34949 whole entry): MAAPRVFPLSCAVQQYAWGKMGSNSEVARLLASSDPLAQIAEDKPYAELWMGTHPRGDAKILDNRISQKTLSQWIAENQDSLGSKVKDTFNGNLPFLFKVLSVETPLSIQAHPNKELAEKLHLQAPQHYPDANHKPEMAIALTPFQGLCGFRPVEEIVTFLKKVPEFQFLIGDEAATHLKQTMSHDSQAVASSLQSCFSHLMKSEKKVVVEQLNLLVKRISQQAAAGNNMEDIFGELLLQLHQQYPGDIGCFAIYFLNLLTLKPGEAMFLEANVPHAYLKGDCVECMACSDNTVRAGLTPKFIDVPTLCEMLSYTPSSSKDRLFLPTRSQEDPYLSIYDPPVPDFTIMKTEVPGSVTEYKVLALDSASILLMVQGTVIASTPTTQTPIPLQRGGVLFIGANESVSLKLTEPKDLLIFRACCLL

[7] = target: Eukaryotic translation initiation factor 4E (Mus musculus, UniProt P63073); assay: eIF4E–eIF4G protein interaction inhibitors, dose response, biochemical, TR-FRET (AID 855); assay type: functional;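 note: potency for disrupting eIF4E binding to eIF4GI seen as loss of FRET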
[8] = inhibitors of intracellular T. cruzi replication, confirmation, NIH3T3 host cells, beta-gal luminescence (AID 2044); assay type: functional, cell-based;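 note: intracellular parasites grown in NIH/3T3 mouse fibroblasts as host cells; luminescent beta-galactosidase reporter signal from transgenic T. cruzi replicating inside host cells; inhibitors lower the luminescence signal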
[9] = cytotoxicity toward NIH3T3 fibroblasts, dose response, counter-screen, cell-based, ATP luminescence, mouse fibroblasts (AID 2010); assay type: functional;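 note: cells exposed to compound for about 90 hours before reading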
[10] = system: INS1; assay: beta cell apoptosis inhibitors, cytokine rescue, dose response, luminescence, retest (AID 449756); assay type: functional, cell-based; settings: Rattus norvegicus;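 note: cell death triggered by IL-1 beta plus TNF-alpha plus IFN-gamma mixture; protective hits raise ATP signal compared with cytokine alone wells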
[11] = HEp-2 cell cytotoxicity, dose response, cytotoxicity control for RSV inhibitor project, HTS (AID 2410); assay type: functional; settings: human respiratory syncytial virus
[12] = cytotoxicity in HPDE-C7 cells, cell-based, fluorescence, HTS (AID 430); assay type: functional; settings: Homo sapiens
[13] = cytotoxicity in KRAS-transformed pancreatic duct cells, primary screen, cell-based, fluorescence, HTS (AID 431); assay type: functional; settings: Homo sapiens;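 note: cell line used: HPDE-C7K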

Sequence of Eukaryotic translation initiation factor 4E (P63073 whole entry): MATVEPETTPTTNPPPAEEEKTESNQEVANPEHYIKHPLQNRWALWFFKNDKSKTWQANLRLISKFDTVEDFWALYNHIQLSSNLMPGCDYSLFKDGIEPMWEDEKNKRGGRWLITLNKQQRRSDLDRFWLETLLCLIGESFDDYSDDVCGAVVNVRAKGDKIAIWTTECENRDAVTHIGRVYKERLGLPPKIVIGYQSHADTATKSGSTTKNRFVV

With CCOC(=O)c1cc2c(=O)n3ccccc3nc2n(CC(C)C)/c1=N/C(=O)c1c(-c2c(F)cccc2Cl)noc1C the EC50 [1] was 14.1 µM (active), the EC50 [2] was 15.8 µM (active) and the EC50 [3] was 42.8 µM (active). For the same molecule, the IC50 [4] was > 80 µM (inactive).

In the case of COC(=O)c1[nH]c2cccc(OC)c2c1NC(=O)CCN1CCC(C(N)=O)CC1, the IC50 [5] is reported as > 100 µM (inactive).

With C/C(=C\C(=O)c1cccnc1)Nc1ccc(C(=O)O)cc1 the IC50 [6] was > 50 µM (not active).

With Nc1nnc(SCc2ccccc2Cl)s1 the IC50 [7] was > 64 µM (inactive).

In the case of N=c1c2c(n(Cc3cccc(Cl)c3)c3c1CCC3)CCCC2, the EC50 [8] is reported as 167 nM (active), the EC50 [9] is reported as > 60 µM (inconclusive) and the IC50 [4] is reported as > 80 µM (inactive). The AC50 [10] was 6.82 µM (active).

With COc1cc2c(C#N)c(N3CCc4ccccc4C3)nc(N)c2c(N)n1 the CC50 [11] was 15.2 µM (active), the EC50 [12] was 7.82 µM (active) and the EC50 [13] was 8.37 µM (active). The IC50 [6] was > 50 µM (not active).
